# Measured values reported in patent US12686666B2, “Triazine compound salt, crystal form thereof, and production method therefor” (TANABE PHARMA CORPORATION, priority 2020, dated 2026).
# Marks after values point to notes of the source that are not given here.
# Experiments:
# Format in all cases: physicochemical
# [1] = Thermal stability evaluation (TG/DTA weight change); conditions: for Thermal stability, conclusion in words: did not show a significant weight change (Succinate Form A: at 25 to 148° C., melting point)
# Description: (§1) Thermal stability was measured and evaluated by using a thermogravimetry/differential thermal analyzer TG/DTA7200 (SII NanoTechnology Inc.) under the following conditions. • Rate of temperature increase: 10° C./min • Range of temperature increase: 25 to 300° C. • Atmosphere: nitrogen 200 mL/min <Hygroscopicity or Deliquescency Evaluation>
# as §1, with “Inc.) under the following conditions • Rate of temperature increase: 10° C./min • Range of temperature increase: 30 to 300° C. • Atmosphere: nitrogen 200 mL/min • or • using a TGA/DSC1 thermogravimetric analyzer (manufactured by Mettler Toledo, STARe system)” for “Inc.)”, “nitrogen 50” for “nitrogen 200”
# [2] = Hygroscopicity or deliquescency evaluation (moisture adsorption, DVS); conditions: for Hygroscopicity or deliquescency, conclusion in words: from Table 5; for Hydration state (hydration stage in moisture adsorption): normal temperature, relative humidity of 10 to 95%
# Description: Hygroscopicity or deliquescency was evaluated as follows by using a moisture adsorption measurement device DVS-1 or DVS-intrinsic (Surface Measurement Systems Limited). Each sample (about 5 mg) was placed into an aluminum plate of which the tare weight had been corrected in advance, and the plate was hung on the precision balance of said device to precisely measure the weight at the start of measurement. The humidity was changed in a stepwise manner in a chamber at 25° C., the weight change was recorded with time, and the equilibrium weight was calculated at each humidity. On the basis of the weight at a dried condition (0% RH), the weight change rate and hydration number at each humidity were calculated.
# Hygroscopicity or deliquescency was evaluated as follows by using a moisture adsorption measurement device DVS-1 or DVS-intrinsic (Surface Measurement Systems Limited). Each sample was placed into a cell of which the tare weight had been corrected in advance, and the cell was hung on the precision balance of said device to precisely measure the weight at the start of measurement. The humidity was changed in a stepwise manner, the weight change was recorded with time, and the equilibrium weight was calculated at each humidity. On the basis of the weight of anhydride converted from the amount of water at a dried condition (0% RH) or at the start of measurement observed by an alternative method, the weight change rate at each humidity was calculated.
# [3] = Chemical stability evaluation (storage 1 week, liquid chromatography peak area %); conditions: for Chemical stability, conclusion in words: did not show a significant increase of related substances
# Description: Each about 1 mg of a sample stored at 60° C. (sealed) or 60° C./75% RH (open) for 1 week and an unstored sample (at the start of test) was dissolved into a mixed solution of acetonitrile/water (1:1) (5 mL) to obtain each sample solution. A test was carried out by liquid chromatographic method under the following conditions to measure each peak area (%).
# Each peak area (%) was measured by using Waters ACQUITY UPLC under the following conditions. • Detector: Photodiode array (measurement wavelength: 239 nm) • Column: Waters ACQUITY BEH C18 (2.1 mm×100 mm, 1.7 μm) • Column temperature: constant temperature about 40° C. • Mobile phase: Solution A; water/TFA (2000:1), Solution B; Acetonitrile/TFA (2000:1) • Concentration gradient control: B % 2→100% (15 minutes) • Flow rate: 0.5 mL/min • Injection volume: 2 μL
# Each sample was stored at 60° C. under a sealed condition and at 60° C. under 75% RH for 1 week, and an increase or decrease of related substance(s) after the storage was calculated by high-performance liquid chromatographic method on the basis of the area percentage of each peak. Also, the condition of each sample after the storage was observed.
# [4] = Table 5, 25° C., relative to weight at 0% RH
# [5] = Table 5, change of related substances (peak area %) vs start
# [6] = Table 5, stored 1 week at 60° C. sealed, change of related substances (peak area %) vs start
# [7] = Table 10, *1 with hydration stage
# [8] = Table 10, increase or decrease of related substance(s), HPLC area percentage
SMILES,"Thermal stability, conclusion in words [1]","Hygroscopicity or Deliquescency Weight change at 90% RH [2, 4]","Chemical stability 60° C., 75% RH, 1 week (open) [3, 5] [%]","Chemical stability 60° C. (sealed) [3, 6] [%]","Chemical stability, conclusion in words [3]","Hygroscopicity or deliquescency, conclusion in words [2]",further results
CC(=O)NC1CCC(NC(=O)CN2CCN(c3nncc(-c4ccc(C)cc4)n3)CC2)CC1.O=C(O)CC(O)(CC(=O)O)C(=O)O (centres unmarked) [Citrate Form A crystal],excellent thermal stability,7.6%,0.03,−0.03,excellent chemical stability,–,Thermal stability TG: weight change ([1]; 25° C.-melting point): 2.2%
CC(=O)NC1CCC(NC(=O)CN2CCN(c3nncc(-c4ccc(C)cc4)n3)CC2)CC1.O=C(O)CO (centres unmarked) [Glycolate Form A crystal],–,1.9%,0.02,0.02,excellent chemical stability,excellent in the reduced hygroscopicity or deliquescency,Thermal stability TG: weight change ([1]; 70° C.-melting point): 14.4%
Br.Br.CC(=O)NC1CCC(NC(=O)CN2CCN(c3nncc(-c4ccc(C)cc4)n3)CC2)CC1 (centres unmarked) [Hydrobromide Form F crystal],–,–,–,–,–,–,"Thermal stability TG: weight change ([1]; Table 10, room temperature −200° C.): 4.8%; Hygroscopicity or Deliquescency Weight change at 90% RH [2, 7]: 3.5%*^1; Hydration state (hydration stage in moisture adsorption) [2]: hydrate; Chemical stability 60° C. (sealed) ([3]; Table 10, 1 week, increase or decrease of related substance(s), HPLC area percentage): 0.02%; Chemical stability 60° C., 75% RH, 1 week (open) [3, 8]: 0.12%"
Br.CC(=O)NC1CCC(NC(=O)CN2CCN(c3nncc(-c4ccc(C)cc4)n3)CC2)CC1 (centres unmarked) [Hydrobromide Form N crystal],–,–,–,–,–,–,"Thermal stability TG: weight change ([1]; Table 10, 25-242° C.): 6.2%; Hygroscopicity or Deliquescency Weight change at 90% RH [2, 7]: 7.2%*^1; Hydration state (hydration stage in moisture adsorption) [2]: hydrate; Chemical stability 60° C., 75% RH, 1 week (open) [3, 8]: 0.00%"
CC(=O)NC1CCC(NC(=O)CN2CCN(c3nncc(-c4ccc(C)cc4)n3)CC2)CC1.Cl (centres unmarked) [Hydrochloride Form A crystal],excellent thermal stability,7.5%,−0.01,−0.01,excellent chemical stability,–,Thermal stability TG: weight change ([1]; 25-160° C.): 0.4%
CC(=O)NC1CCC(NC(=O)CN2CCN(c3nncc(-c4ccc(C)cc4)n3)CC2)CC1.Cl.Cl (centres unmarked) [Hydrochloride Form B crystal],–,5.5%,–,–,–,–,–
CC(=O)NC1CCC(NC(=O)CN2CCN(c3nncc(-c4ccc(C)cc4)n3)CC2)CC1.O=C(O)CC(O)C(=O)O (centres unmarked) [Malate Form A crystal],–,15%,–,–,–,–,Thermal stability TG: weight change ([1]; 25-280° C.): 21.2%
CC(=O)NC1CCC(NC(=O)CN2CCN(c3nncc(-c4ccc(C)cc4)n3)CC2)CC1.O=C(O)C=CC(=O)O (centres unmarked) [Maleate Form A crystal],excellent thermal stability,22%,0.12,0.01,excellent chemical stability,–,Thermal stability TG: weight change ([1]; no temperature range printed): 0.0%
CC(=O)NC1CCC(NC(=O)CN2CCN(c3nncc(-c4ccc(C)cc4)n3)CC2)CC1.O=C(O)C=CC(=O)O (centres unmarked) [Maleate Form B crystal],excellent thermal stability,7.5%,9.66,0.02,–,–,"Thermal stability TG: weight change ([1]; 25-90° C.): 0.4%; Thermal stability TG: weight change ([1]; 120-260° C.): 17.6%; Condition of the sample after storage at 60° C., 75% RH, 1 week (open) ([3]; Table 5, remark in words under the value (glycolate: free body was observed at 60° C., 75% RH, 1 week)): (deliquescent)"
CC(=O)NC1CCC(NC(=O)CN2CCN(c3nncc(-c4ccc(C)cc4)n3)CC2)CC1.CS(=O)(=O)O (centres unmarked) [Mesilate Form A crystal],excellent thermal stability,17%,5.73,−0.13,–,–,Thermal stability TG: weight change ([1]; 120° C.): 0.8%
CC(=O)NC1CCC(NC(=O)CN2CCN(c3nncc(-c4ccc(C)cc4)n3)CC2)CC1.O=C(O)CCC(=O)O (centres unmarked) [Succinate Form A crystal],excellent thermal stability,0.4%,0.02,0.04,excellent chemical stability,excellent in the reduced hygroscopicity or deliquescency,Thermal stability TG: weight change ([1]; 25-148° C.): 0.0%; Thermal stability TG: weight change ([1]; 148-210° C.): 23.7%
CC(=O)NC1CCC(NC(=O)CN2CCN(c3nncc(-c4ccc(C)cc4)n3)CC2)CC1.CC(=O)NC1CCC(NC(=O)CN2CCN(c3nncc(-c4ccc(C)cc4)n3)CC2)CC1.O=S(=O)(O)O.O=S(=O)(O)O.O=S(=O)(O)O.O=S(=O)(O)O.O=S(=O)(O)O (centres unmarked) [Sulfate Form A crystal],–,8%,–,–,–,–,–
CC(=O)NC1CCC(NC(=O)CN2CCN(c3nncc(-c4ccc(C)cc4)n3)CC2)CC1.CC(=O)NC1CCC(NC(=O)CN2CCN(c3nncc(-c4ccc(C)cc4)n3)CC2)CC1.O.O.O.O.O=S(=O)(O)O.O=S(=O)(O)O.O=S(=O)(O)O.O=S(=O)(O)O.O=S(=O)(O)O (centres unmarked) [Sulfate Form B crystal],excellent thermal stability,5%*^1,0.13,0,excellent chemical stability,excellent in the reduced hygroscopicity or deliquescency,Thermal stability TG: weight change ([1]; 25-93° C.): 4.3%; Thermal stability TG: weight change ([1]; 93-105° C.): 1.6%; Hydration state (hydration stage in moisture adsorption) [2]: hydrate
CC(=O)NC1CCC(NC(=O)CN2CCN(c3nncc(-c4ccc(C)cc4)n3)CC2)CC1.Cc1ccc(S(=O)(=O)O)cc1 (centres unmarked) [Tosilate Form B crystal],excellent thermal stability,7.5%,−0.05,−0.07,excellent chemical stability,excellent in the reduced hygroscopicity or deliquescency,Thermal stability TG: weight change ([1]; 25° C.-melting point): 0.7%
CC(=O)NC1CCC(NC(=O)CN2CCN(c3nncc(-c4ccc(C)cc4)n3)CC2)CC1.Cc1ccc(S(=O)(=O)O)cc1.Cc1ccc(S(=O)(=O)O)cc1 (centres unmarked) [Tosilate Form C crystal],excellent thermal stability,1.4%,0.39,0.04,excellent chemical stability,excellent in the reduced hygroscopicity or deliquescency,Thermal stability TG: weight change ([1]; 25° C.-melting point): 1.2%
